Laboratory results reported in patent US7456167B2, “Cyclopropyl fused indolobenzazepine HCV NS5B inhibitors” (Bristol-Myers Squibb Company, priority 2006, dated 2008).
pEC50, pIC50: −log10 of the molar value. Read-outs that look alike come from different tables or passages of the source.

How the values were obtained:
HCV replicon cells = assay: HCV replicon FRET assay; format: cell-based; conditions: Hepatitis C virus
Source text: FRET Assay Preparation. To perform the HCV FRET screening assay, 96-well cell culture plates were used. The FRET peptide (Anaspec, Inc.) (Taliani et al., Anal. Biochem. 1996, 240, 60-67) contains a fluorescence donor, EDANS, near one end of the peptide and an acceptor, DABCYL, near the other end. The fluorescence of the peptide is quenched by […] resonance energy transfer (RET) between the donor and the acceptor, but as the NS3 protease cleaves the peptide the products are released from RET quenching and the fluorescence of the donor becomes apparent. The assay reagent was made as follows: 5× cell Luciferase cell culture lysis reagent from Promega (#E153A) diluted to 1× with dH2O, NaCl added to 150 mM final, the FRET peptide diluted to 20 uM final from a 2 mM stock.
To prepare plates, HCV replicon cells, with or without a Renilla luciferase reporter gene, were trypsinized and placed into each well of a 96-well plate with titrated test compounds added in columns 3 through 12; columns 1 and 2 contained a control compound (HCV protease inhibitor), and the bottom row contained cells without compound. The plates were then placed in a CO2 incubator at 37° C.
Assays. Subsequent to addition of the test compounds described above (FRET Assay Preparation), at various times the plate was removed and Alamar blue solution (Trek Diagnostics, #00-100) was added per well as a measure of cellular toxicity. After reading in a Cytoflour 4000 instrument (PE Biosystems), plates were rinsed with PBS and then used for FRET assay by the addition of 30 ul of the FRET peptide assay reagent described above (FRET Assay Preparation) per well. The plate was then placed into the Cytoflour 4000 instrument which had been set to 340 excite/490 emission, automatic mode for 20 cycles and the plate read in a kinetic mode. Typically, the signal to noise using an endpoint analysis after the reads was at least three-fold. Alternatively, after Alamar blue reading, plates were rinsed with PBS, 50 ul of DMEM (high glucose) without phenol red was added and plates were then used for luciferase assay using the Promega Dual-Glo Luciferase Assay System.
Compound analysis was determined by quantification of the relative HCV replicon inhibition and the relative cytotoxicity values. To calculate cytoxicity values, the average Alamar Blue fluorescence signals from the control wells were set as 100% non-toxic. The individual signals in each of the compound test wells were then divided by the average control signal and multiplied by 100% to determine […]. To calculate the HCV replicon inhibition values, an average background value was obtained from the two wells containing the highest amount of HCV protease inhibitor at the end of the assay period. These numbers were similar to those obtained from naïve Huh-7 cells.
The background numbers were then subtracted from the average signal obtained from the control wells and this number was used as 100% activity. The individual signals in each of the compound test wells were then divided by the averaged control values after background subtraction and multiplied by 100% to determine percent activity. EC50 values for a protease inhibitor titration were calculated as the concentration which caused a 50% reduction in FRET or luciferase activity. The two numbers generated for the compound plate, percent cytoxicity and percent activity were used to determine compounds of interest for further analysis.

[1] = target: T1, HCV NS5B RdRp genotype 1b (Hepatitis C virus genotype 1b, UniProt Q9WMX2); assay: Modified HCV NS5B RdRp enzyme assay (preincubation protocol); format: biochemical
T1 construct: The protein was expressed with an 18 amino acid C-terminal truncation to enhance the solubility; made in house; host or cells: E. coli BL21(DE3)
Description: HCV NS5B RdRp cloning, expression, and purification. The cDNA encoding the NS5B protein of HCV, genotype 1b, was cloned into the pET21a expression vector. The protein was expressed with an 18 amino acid C-terminal truncation to enhance the solubility. The E. coli competent cell line BL21(DE3) was used for expression of the protein. Cultures were grown at 37° C. for ˜4 hours until the cultures reached an optical density of 2.0 at 600 nm. The cultures were cooled to 20° C. and induced with 1 mM IPTG. Fresh ampicillin was added to a final concentration of 50 μg/ml and the cells were grown overnight at 20° C.
Cell pellets (3 L) were lysed for purification to yield 15-24 mgs of purified NS5B. The lysis buffer consisted of 20 mM Tris-HCl, pH 7.4, 500 mM NaCl, 0.5% triton X-100, 1 mM DTT, 1 mM EDTA, 20% glycerol, 0.5 mg/ml lysozyme, 10 mM MgCl2, 15 ug/ml deoxyribonuclease I, and Complete TM protease inhibitor tablets (Roche). After addition of the lysis buffer, frozen cell pellets were resuspended using a tissue homogenizer. To reduce the viscosity of the sample, aliquots of the lysate were sonicated on ice using a microtip attached to a Branson sonicator. The sonicated lysate was centrifuged at 100,000×g for 1 hr at 4° C. and filtered through a 0.2 μm filter unit (Corning).
The protein was purified using three sequential chromatography steps: Heparin sepharose CL-6B, polyU sepharose 4B, and Hitrap SP sepharose (Pharmacia). The chromatography buffers were identical to the lysis buffer but contained no lysozyme, deoxyribonuclease I, MgCl2 or protease inhibitor and the NaCl concentration of the buffer was adjusted according to the requirements for charging the protein onto the column. Each column was eluted with a NaCl gradient which varied in length from 5-50 column volumes depending on the column type. After the final chromatography step, the resulting purity of the enzyme is >90% based on SDS-PAGE analysis. The enzyme was aliquoted and stored at −80° C.
Standard HCV NS5B RdRp enzyme assay. HCV RdRp genotype 1b assays were run in a final volume of 60 μl in 96 well plates (Costar 3912). The assay buffer is composed of 20 mM Hepes, pH 7.5, 2.5 mM KCl, 2.5 mM MgCl2, 1 mM DTT, 1.6 U RNAse inhibitor (Promega N2515), 0.1 mg/ml BSA (Promega R3961), and 2% glycerol. All compounds were serially diluted (3-fold) in DMSO and diluted further in water such that the final concentration of DMSO in the assay was 2%. HCV RdRp genotype 1b enzyme was used at a final concentration of 28 nM. A polyA template was used at 6 nM, and a biotinylated oligo-dT12 primer was used at 180 nM final concentration. Template was obtained commercially (Amersham 27-4110). Biotinylated primer was prepared by Sigma Genosys. 3H-UTP was used at 0.6 μCi (0.29 μM total UTP). Reactions were initiated by the addition of enzyme, incubated at 30° C. for 60 min, and stopped by adding 25 μl of 50 mM EDTA containing SPA beads (4 μg/μl, Amersham RPNQ 0007). Plates were read on a Packard Top Count NXT after >1 hr incubation at room temperature.
Modified HCV NS5B RdRp enzyme assay. A modified enzyme assay was performed essentially as described for the standard enzyme assay except for the following: The biotinylated oligo dT12 primer was precaptured on streptavidin-coated SPA beads by mixing primer and beads in assay buffer and incubating at room temperature for one hour. Unbound primer was removed after centrifugation. The primer-bound beads were resuspended in 20 mM Hepes buffer, pH 7.5 and used in the assay at final concentrations of 20 nM primer and 0.67 μg/μl beads. Order of addition in the assay: enzyme (14 nM) was added to diluted compound followed by the addition of a mixture of template (0.2 nM), 3H-UTP (0.6 μCi, 0.29 μM), and primer-bound beads, to initiate the reaction; concentrations given are final. Reactions were allowed to proceed for 4 hours at 30° C.
IC50 values for compounds were determined using seven different [I]. […]

[2] = HCV replicon cells, FRET assay, read-out: EC50
[3] = HCV NS5B RdRp genotype 1b, preincubation protocol, read-out: IC50

T1 sequence (Q9WMX2 2420-2992): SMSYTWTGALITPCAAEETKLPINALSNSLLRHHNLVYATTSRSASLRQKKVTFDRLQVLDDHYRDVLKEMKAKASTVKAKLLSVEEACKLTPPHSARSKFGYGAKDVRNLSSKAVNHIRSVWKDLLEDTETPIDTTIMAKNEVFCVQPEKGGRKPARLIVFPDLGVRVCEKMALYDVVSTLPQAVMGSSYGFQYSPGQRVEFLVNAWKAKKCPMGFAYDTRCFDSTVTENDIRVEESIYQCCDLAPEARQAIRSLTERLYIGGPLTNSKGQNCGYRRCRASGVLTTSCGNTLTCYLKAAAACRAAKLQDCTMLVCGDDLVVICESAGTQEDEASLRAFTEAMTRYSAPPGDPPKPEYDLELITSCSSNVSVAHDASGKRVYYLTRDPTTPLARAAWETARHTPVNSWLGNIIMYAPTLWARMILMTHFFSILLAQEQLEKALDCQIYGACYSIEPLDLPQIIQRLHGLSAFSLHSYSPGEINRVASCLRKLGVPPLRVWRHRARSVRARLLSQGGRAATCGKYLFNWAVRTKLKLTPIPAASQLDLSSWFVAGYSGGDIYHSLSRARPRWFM

Compound: COc1ccc2c(c1)C1CC1(S(=O)(=O)N1CC[C@@H](N(C)C)C1)Cn1c-2c(C2CCCCC2)c2ccc(C(=O)NS(=O)(=O)N3CCOCC3)cc21 (stereo partly shown)
- pEC50 (HCV replicon cells; [2]): 6.00 to 7.70
- pIC50 [1, 3]: 6.00 to 7.70

Compound: COc1ccc2c(c1)C1CC1(S(=O)(=O)N1CCCC1)Cn1c-2c(C2CCCCC2)c2ccc(C(=O)NS(=O)(=O)C(C)C)cc21 (stereo not shown)
- pEC50 (HCV replicon cells; [2]): 6.00 to 7.70
- pIC50 [1, 3]: 6.00 to 7.70

Compound: CCS(=O)(=O)C1Cc2ccccc2-c2c(C3CCCCC3)c3ccc(C(=O)O)cc3n2C1 (stereo not shown)
- pEC50 (HCV replicon cells; [2]): 6.00 to 7.70
- pIC50 [1, 3]: 6.00 to 7.70

Compound: COC(=O)c1ccc2c(C3CCCCC3)c3n(c2c1)CC1(S(=O)(=O)O)CC1c1cc(OC)ccc1-3 (stereo not shown)
- pEC50 (HCV replicon cells; [2]): < 6.00
- pIC50 [1, 3]: 6.00 to 7.15

Compound: COc1ccc2c(c1)C=C(S(=O)(=O)N1CCN(C)CC1)Cn1c-2c(C2CCCCC2)c2ccc(C(=O)NS(=O)(=O)N(C)C)cc21
- pEC50 (HCV replicon cells; [2]): 6.00 to 7.70
- pIC50 [1, 3]: 6.00 to 7.70

Compound: COc1ccc2c(c1)C1CC1(S(=O)(=O)N1CCN3CCCC3C1)Cn1c-2c(C2CCCCC2)c2ccc(C(=O)NS(=O)(=O)N3CCOCC3)cc21 (stereo not shown) [drawing 64]
- pEC50 (HCV replicon cells; [2]): 6.00 to 7.70
- pIC50 [1, 3]: 6.00 to 7.70

Compound: COc1ccc2c(c1)C1CC1(S(=O)(=O)N1CC3C[C@H]1CN3C)Cn1c-2c(C2CCCCC2)c2ccc(C(=O)NS(=O)(=O)N(C)C)cc21 (stereo partly shown)
- pEC50 (HCV replicon cells; [2]): 6.00 to 7.70
- pIC50 [1, 3]: 6.00 to 7.70

Compound: COC[C@@H]1CN(S(=O)(=O)C23CC2c2cc(OC)ccc2-c2c(C4CCCCC4)c4ccc(C(=O)NS(=O)(=O)C(C)C)cc4n2C3)CCO1 (stereo partly shown)
- pEC50 (HCV replicon cells; [2]): 6.00 to 7.70
- pIC50 [1, 3]: 6.00 to 7.70

Compound: COc1ccc2c(c1)C1CC1(S(=O)(=O)N1CCN(C)CC1)Cn1c-2c(C2CCCCC2)c2ccc(C(=O)NS(=O)(=O)N(C)C)cc21 (stereo not shown)
- pEC50 (HCV replicon cells; [2]): 6.00 to 7.70
- pIC50 [1, 3]: 6.00 to 7.70

Compound: COc1ccc2c(c1)CC(S(=O)(=O)CCN1CCN(C)CC1)Cn1c-2c(C2CCCCC2)c2ccc(C(=O)NS(=O)(=O)N(C)C)cc21 (stereo not shown)
- pEC50 (HCV replicon cells; [2]): 6.00 to 7.70
- pIC50 [1, 3]: 6.00 to 7.70

Compound: COc1ccc2c(c1)C1CC1(S(=O)(=O)N1C3CCC1CC(C)(O)C3)Cn1c-2c(C2CCCCC2)c2ccc(C(=O)NS(=O)(=O)N3CCOCC3)cc21 (stereo not shown)
- pEC50 (HCV replicon cells): 6.00 to 7.70
- pIC50 [1]: 6.00 to 7.70

Compound: CCS(=O)(=O)C1Cc2ccccc2-c2c(C3CCCCC3)c3ccc(C(=O)NS(=O)(=O)N(C)C)cc3n2C1 (stereo not shown)
- pEC50 (HCV replicon cells; [2]): 6.00 to 7.70
- pIC50 [1, 3]: 6.00 to 7.70

Compound: COc1ccc2c(c1)C1CC1(S(=O)(=O)N1CCN3CCC1CC3)Cn1c-2c(C2CCCCC2)c2ccc(C(=O)NS(=O)(=O)N(C)C)cc21 (stereo not shown)
- pEC50 (HCV replicon cells; [2]): 6.00 to 7.70
- pIC50 [1, 3]: 6.00 to 7.70

Compound: COc1ccc2c(c1)C1CC1(S(=O)(=O)N1CCN3CCC1CC3)Cn1c-2c(C2CCCCC2)c2ccc(C(=O)NS(=O)(=O)C(C)C)cc21 (stereo not shown)
- pEC50 (HCV replicon cells; [2]): 6.00 to 7.70
- pIC50 [1, 3]: 6.00 to 7.70
